Laboratory results published in patent US3984470A, “Amidoxime derivatives and process for preparing the same” (priority 1974, dated 1976).

Columns and labels:
reserpine-induced ptosis = assay: Reserpine-induced ptosis in the rat; assay type: in vivo, male rats of the CF1 strain; details: reserpine 5 mg/kg i.p., score scale 0-4, mean to 6th hour vs controls
Procedure: (§2) The thymoanaleptic properties of the compounds of the invention were determined by means of reserpine-induced ptosis and hypothermia in the rat.
An intraperitoneal dose of 5 mg/kg of reserpine was administered to batches of 5 male rats of the CF1 strain weighing an average of 300 g.
Thirty minutes later a dose of the compound to be studied was given by oral route and the inhibitory effect of the reserpine was noted every hour up to the sixth hour. Ptosis was evaluated for each eye in accordance with the following scale:
4 : eyelids completely closed.
The difference between these two averages represents the average decrease of the ptosis in the treated animals as compared to the controls.

[1] = system: reserpine-induced hypothermia; assay: Reserpine-induced hypothermia in the rat; assay type: in vivo, male rats CF1; details: reserpine 5 mg/kg i.p., mean to 6th hour vs controls
Procedure: as §2
An intraperitoneal dose of 5 mg/kg of reserpine was administered to batches of 5 male rats CF1 weighing an average of 300 g. Thirty minutes later, the rectal temperature was determined and then a dose of the compound to be tested was given by oral route, except to the control animals. The rectal temperature of all the animals including the controls was taken every hour up to the 6th hour.
The difference between these two averages enabled an estimation to be made regarding the antagonistic effect of the compounds of the invention on the hypothermia induced by reserpine.

toxicity of yohimbine = assay: Potentiation of the toxicity of yohimbine (test of QUINTON); assay type: in vivo, male mice; details: yohimbine hydrochloride 25 mg/kg i.p.; for mortality at 50 mg/kg: Mus musculus, 50 mg/kg oral, mortality after 24 hours
Procedure: Yohimbine is a substance which provokes an increase in the serotonine level in the brain or a decrease in norepinephrine according to the author.
For this purpose, the test of QUINTON was used which is described in Brit. J. Pharmacol. 21, 51 (1963). […] […] The percentage of mortality was noted after 24 hours.
Table III hereunder expresses the percentage of potentiation of the toxicity due to yohimbine in comparison with the controls.
The percentage in question was determined 24 hours after the administration of yohimbine.

[2] = system: stereotypies induced by amphetamine; assay: Potentiation of the stereotypies induced by amphetamine; assay type: in vivo, rats
Procedure: It is commonly admitted that amphetamine induces stereotypies by stimulating the dopaminergic receptors and inhibiting the re-uptake of dopamine into the neuron.
The thymoanaleptics potentiate these stereotypies.
Thirty minutes later, a dose of 10 mg/kg of the compound to be tested was given by oral route. Note was taken of the intensity of the stereotypies every 30 minutes for 150 minutes in accordance with the following scale which indicates the behaviour of the animal.
0 : the rat is motionless and asleep
1 : the rat is motionless and awake
3 : the rat stands on its hind paws and sniffs the lid of its cage in a stereotyped manner.
4 : the rat licks the walls of its cage in a stereotyped manner
5 : the rat bites the bars of its cage or sniffs the shavings of its litter in a stereotyped manner
6 : the rat chews the shavings in a stereotyped manner
The average of the 5 results obtained for each batch was calculated and compared with the average obtained with the control animals.
The difference between these averages represents the mean increase of the steroetypies of the treated animals in comparison with the controls.

spontaneous motricity = assay: Spontaneous motricity in the mouse; assay type: in vivo; details: 50 mg/kg intragastric, mouse
Procedure: Tests were also performed with a view to determining whether the compounds of the invention modify spontaneous motricity.

[3] = system: aggressivity of killer rats; assay: Aggressivity of killer rats; assay type: in vivo, male rats; details: for inhibition in vivo at 25 mg/kg: 25 mg/kg i.p.; for inhibition in vivo at 20 mg/kg: 20 mg/kg i.p.; for antiaggressive properties: conclusion from Table V
Description: If, under certain conditions, male rats are kept alone in individual cages for several weeks, the become spontaneously aggressive towards any mouse, which they kill as soon as it is placed in the same cage. Mice were introduced one after another into cages containing an isolated rat and a selection was made of the rats which immediately killed three mice. In this way batches of 6 to 8 rats were constituted. The rats were then given the compound to be studied by intraperitoneal route in such a way that each batch received a higher dose than the preceding batch. […] Table V which follows contains the results obtained 30 minutes after administration of the compound to be studied.

neuromuscular functions = assay: Rotarod test of BOISSIER / neuromuscular functions; assay type: in vivo, mouse; details: up to 40 mg/kg oral, for 3 hours after administration
[4] = Toxicity, method of KARBER and BEHRENS, mice; details: mouse, in vivo, mice, after 48 hours
Procedure: (§1) Finally, tests of toxicity were performed with compounds of the invention following the method of KARBER and BEHRENS.

[5] = Toxicity, method of KARBER and BEHRENS, rats; details: rat, in vivo, rats, after 48 hours
Procedure: as §1

[6] = system: aggressivity of isolated mice; assay: Aggressivity of isolated mice; assay type: in vivo, male mouse
Procedure: If a male mouse is kept alone in a cage for 3 weeks to 1 month, it will spontanesouly attack any other animal of the same species which is placed in the same cage. If the other animal has also been isolated under the same conditions a series of fights takes place.
Mice were isolated for the period of time required to render them spontaneously aggressive. Couples were then put together and note was taken of the number of fights which took place over a period of 3 minutes. Each batch was composed of four pairs of mice.
The animals of each batch were then treated by intragastric route with the compound to be studied which was administered in such a way that each batch received a higher dose than the preceding batch. […]
The results were expressed in the percentage of decrease in the number of fights between the animals after treatment in comparison with the percentage obtained before treatment which represents the percentage of inhibition of aggressivity.

[7] = system: cholinergic effects provoked by tremorine; assay: Cholinolytic properties: action with respect to tremorine; assay type: in vivo, male mice of the OF1 strain; details: 20 mg/kg oral; tremorine 10 mg/kg; difference vs controls
Procedure: When injected into mice, tremorine and its metabolite, oxotremorine, produce central cholinergic effects, i.e. normal and provoked tremor as well as peripheral cholinergic effects i.e. weeping, sweating diarrhoea and salivation.
Male mice of the OF1 strain weighing 22 g, were divided into batches of 10. Each batch with the exception of the control animals, received, by oral route, a dose of the compound to be tested.
Thirty minutes later, 10 mg/kg of tremorine were administered to all the batches and thirty minutes after the injection of tremorine note was taken of the cholinergic effects on each animal in accordance with the following scale: […]

[8] = system: peripheral noradrenergic processes; details: intravenous route; cited from earlier work
[9] = 10 mg/kg oral, amphetamine 10 mg/kg i.p., every 30 min for 150 min
[10] = Rattus norvegicus, ip, 0.5 h, 30 minutes after administration
[11] = 20 mg/kg, same conditions (amphetamine 10 mg/kg i.p.)

In the case of `CC(Oc1cccc2c1OCC2)C(N)=NO` (stereo not shown) [Compound 9, 2-(2,3-Dihydro-7-benzofuryloxy)-propionamidoxime], the “Average decrease of Ptosis” value (reserpine-induced ptosis; 10 mg/kg oral) is reported as 1.3, the “Average inhibition of hypothermia (positive °C)” value (“Average inhibition” for short) ([1]; 10 mg/kg oral) is reported as 0.5 °C and the mortality at 50 mg/kg (toxicity of yohimbine) is reported as 10%. For the same compound, the “Average increase of the stereotypies” value [2, 9] was 6.2 and the “influence on spontaneous motricity” value (spontaneous motricity) was “no influence on the spontaneous motricity”.
For `Cc1oc2cc(OC(C)(C)C(N)=NO)ccc2c1C` [Compound 4, 2-(2,3-Dimethyl-6-benzofuryloxy)-2-methyl-propionamidoxime], the “Average decrease of Ptosis” value (reserpine-induced ptosis; 10 mg/kg oral) was 2.1, the “Average inhibition” value ([1]; 10 mg/kg oral) was 0.6 °C and the mortality at 50 mg/kg (toxicity of yohimbine) was 30%. For the same compound, the “Average increase of the stereotypies” value [2, 9] was 0.8 and the inhibition in vivo at 25 mg/kg [3, 10] was 25%.
For `NC(CCOc1cccc2ccccc12)=NO` [Compound 6, 3-(1-Naphthyloxy)-propionamidoxime], the “Average decrease of Ptosis” value (reserpine-induced ptosis; 10 mg/kg oral) was 1.5, the mortality at 50 mg/kg (toxicity of yohimbine) was 30% and the inhibition in vivo at 25 mg/kg [3, 10] was 30%.
In the case of `NC(COc1cccc2sccc12)=NO` [Compound 26, 2-(4-Benzothienyloxy)-acetamidoxime], the “Average decrease of Ptosis” value (reserpine-induced ptosis; 20 mg/kg oral) is reported as 1.4, the “Potentiation of the toxicity of yohimbine” value (toxicity of yohimbine; 20 mg/kg oral, 24 hours) is reported as 50% and the “Mean increase of the stereotypies” value ([2]; 20 mg/kg oral, 5 mg/kg of amphetamine) is reported as 6.8. The inhibition in vivo at 25 mg/kg [3, 10] was 27%.
With `CC(Oc1cccc2ccoc12)C(N)=NO` (stereo not shown) [Compound 2, 2-(7-Benzofuryloxy)-propionamidoxime] the “Average decrease of Ptosis” value (reserpine-induced ptosis; 10 mg/kg oral) was 2.4, the “Average inhibition” value ([1]; 100 mg/kg oral) was 0.8 °C and the mortality at 50 mg/kg (toxicity of yohimbine) was 50%. The “Average increase of the stereotypies” value ([2]; 0.05 mg/kg intragastric, 150 minutes) was 9, the “Average increase of the stereotypies” value [2, 9] was 9 and the inhibition in vivo at 20 mg/kg [3, 10] was 50%. For the same compound, the “influence on spontaneous motricity” value (spontaneous motricity) was “no influence on the spontaneous motricity”, the “damage to the neuromuscular functions” value (neuromuscular functions) was “did not cause any damage to the neuromuscular functions up to 40 mg/kg” and the LD50 at 48 h ([4]; ip, intraperitoneal) was 68 mg/kg. The LD50 at 48 h ([4]; oral) was 170 mg/kg, the LD50 at 48 h ([5]; ip, intraperitoneal) was 62.5 mg/kg and the LD50 at 48 h ([5]; oral) was 440 mg/kg.
For `NC(COc1ccc2occc2c1)=NO` [Compound 5, 2-(5-Benzofuryloxy)-acetamidoxime], the “Average decrease of Ptosis” value (reserpine-induced ptosis; 10 mg/kg oral) was 1.9, the “Average inhibition” value ([1]; 10 mg/kg oral) was 0.5 °C and the mortality at 50 mg/kg (toxicity of yohimbine) was 10%. It also gave an inhibition in vivo at 25 mg/kg [3, 10] of 60%.
With `CCC(Oc1cccc2ccccc12)C(N)=NO` (stereo not shown) [Compound 34] the “Average inhibition” value ([1]; 10 mg/kg oral) was 1.1 °C, the mortality at 50 mg/kg (toxicity of yohimbine) was 10% and the inhibition in vivo at 1 mg/kg ([3]; Rattus norvegicus, ip, 0.5 h, 1 mg/kg i.p., 30 minutes after administration) was 100%. The antiaggressive properties [3] was “powerful antiaggressive properties”.
With `CN(C)CCCN1c2ccccc2CCc2ccccc21` [imipramine, 5-(3-dimethylaminopropyl)-10,11-dihydro-5H-dibenz [b,f] azepine, reference compound] the “Average decrease of Ptosis” value (reserpine-induced ptosis; 20 mg/kg oral) was 1.6, the “Average inhibition” value ([1]; 10 mg/kg oral) was 0.4 °C and the mortality at 50 mg/kg (toxicity of yohimbine) was 50%. For the same compound, the “Average increase of the stereotypies” value ([2]; 5 mg/kg, same conditions (intragastric), 150 minutes) was 4.4, the “Average increase of the stereotypies” value [2, 11] was 6 and the inhibition in vivo at 20 mg/kg [3, 10] was 45%. For the same compound, the inhibition of aggressivity ([6]; 20 mg/kg) was 78%, the “dose of imipramine giving the same activity as Compound 1” value ([6]; relative to 0.42 mg/kg of Compound 1, intragastric, 90 minutes) was “twenty-times greater” and the “Central response tremor: Normal” value [7] was -4. The “Central response tremor: Provoked” value [7] was -0.4, the “Peripheral cholinergic response: Salivat.” value [7] was 0 and the “Peripheral cholinergic response: Sweating” value [7] was -2. The “Peripheral cholinergic response: Weeping” value [7] was -0.8 and the “dose potentiating the peripheral effects of exogenous norepinephrine” value [8] was ≥ 1 mg/kg.
With `NC(CCOc1ccc2ccccc2c1)=NO` [Compound 18, 3-(2-Naphthyloxy)-propionamidoxime] the “Average decrease of Ptosis” value (reserpine-induced ptosis; 10 mg/kg oral) was 0.4, the mortality at 50 mg/kg (toxicity of yohimbine) was 10% and the inhibition in vivo at 25 mg/kg [3, 10] was 100%. For the same compound, the antiaggressive properties [3] was “powerful antiaggressive properties”.
In the case of `CC(Oc1cccc2occc12)C(N)=NO` (stereo not shown) [Compound 3, 2-(4-Benzofuryloxy)-propionamidoxime], the “Average decrease of Ptosis” value (reserpine-induced ptosis; 10 mg/kg oral) is reported as 2.1, the “Average inhibition” value ([1]; 20 mg/kg oral) is reported as 1 °C and the mortality at 50 mg/kg (toxicity of yohimbine) is reported as 40%. The “Average increase of the stereotypies” value [2, 9] was 8.6, the inhibition in vivo at 20 mg/kg [3, 10] was 89% and the “influence on spontaneous motricity” value (spontaneous motricity) was “no influence on the spontaneous motricity”. For the same compound, the LD50 at 48 h ([4]; ip, intraperitoneal) was 68 mg/kg.
For `CCC(Oc1cccc2c1OCCO2)C(N)=NO` (stereo not shown) [Compound 14, 2-[(1,4-Benzodioxanyl)-5-oxy]-butyramidoxime], the “Average decrease of Ptosis” value (reserpine-induced ptosis; 10 mg/kg oral) was 0.6, the “Average inhibition” value ([1]; 10 mg/kg oral) was 0.4 °C and the “Average increase of the stereotypies” value [2, 9] was 4.2. It also gave an inhibition in vivo at 25 mg/kg [3, 10] of 80%.
In the case of `CCc1oc2ccccc2c1OC(C)(C)C(N)=NO` [Compound 46, 2-(2-Ethyl-3-benzofuryloxy)-2-methyl-propionamidoxime], the mortality at 50 mg/kg (toxicity of yohimbine) is reported as 10%, the “Average increase of the stereotypies” value [2, 9] is reported as 6.6 and the inhibition in vivo at 25 mg/kg [3, 10] is reported as 100%.
For `NC(CCOc1cccc2ccoc12)=NO` [Compound 8, 3-(7-Benzofuryloxy)-propionamidoxime], the “Average decrease of Ptosis” value (reserpine-induced ptosis; 10 mg/kg oral) was 1.3, the “Average inhibition” value ([1]; 10 mg/kg oral) was 0.4 °C and the mortality at 50 mg/kg (toxicity of yohimbine) was 30%. The “Average increase of the stereotypies” value [2, 9] was 5.6, the inhibition in vivo at 25 mg/kg [3, 10] was 70% and the “influence on spontaneous motricity” value (spontaneous motricity) was “no influence on the spontaneous motricity”.
For `CC(C)(Oc1cccc2ccoc12)C(N)=NO` [Compound 30, 2-(7-Benzofuryloxy)-2-methyl-propionamidoxime], the “Average decrease of Ptosis” value (reserpine-induced ptosis; 100 mg/kg oral) was 2.3, the “Average inhibition” value ([1]; 100 mg/kg oral) was 1 °C and the “Average increase of the stereotypies” value [2, 11] was 6.5. For the same compound, the inhibition in vivo at 20 mg/kg [3, 10] was 75%.
